Assay results: patent US9944634B2, “Pyrazolopyridine derivatives as TTX-S blockers” (RaQualia Pharma Inc., priority 2012, dated 2018)
Where two headings read alike, the source gives them in different places.

What was measured:
Assay type in all cases: cell-based
human Nav1.3 (hSCN3A) = target: T1, human Nav1.3 (hSCN3A) (Homo sapiens, UniProt Q9NY46); experiment: Electrophysiology assay (whole cell patch clamp), human Nav1.3; conditions: dissociation constant for the inactivated state, HEK293 cells, read-out: activity (Ki) against Nav1.3
T1 construct: expressed in transfected cells; host or cells: HEK293 cells
Description: (§1) Electrophysiology Assay for Nays
(§2) Whole cell patch clamp recording is used to assess the efficacy or selectivity of Na channel blocker on human Nav1.3 (hSCN3A) expressing HEK293 cells or human Nav1.7 (hSCN9A) expressing CHO cells. Human Nav1.3 expressing HEK293 cells are grown in growth media which contain: DMEM, 10% heat-inactivated FBS (Hyclone Laboratories Inc), 100 microgram/mL penicillin/100U/mL streptomycin, 150 microgram/mL Zeocin, and 3 microgram/mL Geneticin. Human Nav1.7 expressing CHO cells are grown in growth media which contain: HAMF-12, 9% heat-inactivated FBS (Hyclone Laboratories Inc), and 100 microgram/mL penicillin/100 U/mL streptomycin, and 100 microgram/mL hygromycin. […]
(§3) The normalized steady-state inactivation curve is constructed using 2 sec (for vehicle) or 60 sec (for drugs) conditioning pulse to different potentials followed immediately by the test pulse to −10 mV. […] The affinity of drugs to resting state of Na channels (Kresting or Kr) is assessed by 30 msec test pulse from a negative holding potential of -120 or −130 mV, where virtually all channels are in the resting state. Kr value is calculated by a conventional 1:1 binding model: Kresting(Kr)={[drug]Imax,drug/(Imax,control−Imax,drug)} [Math.2] • where Kresting(=Kr) is a dissociation constant for the resting state and [drug] is compound concentration. […]

human Nav1.7 channels = target: T2, human Nav1.7 channels (Homo sapiens, UniProt Q15858); experiment: FRET assay, human Nav1.7 channels
T2 construct: expressed in transfected cells; host or cells: CHO cells
Description: (§4) The inhibitory activities of compounds against voltage gated sodium channels are determined by methodology well known in the art.
(§5) The ability of the pyrazolopyridine derivatives of the formula (I) to inhibit the Nav1.3, Nav1.7 and Nav1.5 channels is measured by Fluorescence Resonance Energy Transfer (FRET) assay and electrophysiology assay described below.
(§6) This screen is used to determine the effects of compounds on human Nav1.3, human Nav1.7, and human Nav1.5 channels, utilising electrical field stimulation (EFS) system in 96-well plate format on FDSS (Hamamatsu Photonics) platform. The change of membrane potential is monitored with FRET dye pair, oxonol (DiSBAC2(3)) and coumarin (CC2-DMPE).
CHO cells expressing human Nav1.7 channels are grown in T225 flasks, in a 5% CO2 humidified incubator to about 80% confluence. Media composition consists of HAM/F12 with Glutamax I, 10% FCS, 100 units/mL penicillin and 100 microgram/mL hygromycin. […]
(§7) The data are analyzed and reported as normalized ratios of intensities measured at […]. […]
(§8) This analysis is performed using a computerized specific program designed for FDSS generated data. Fluorescence ratio values are plotted using XLfit to determine an IC50 value for each compound.

human Nav1.7 (hSCN9A) = target: T3, human Nav1.7 (hSCN9A) (Homo sapiens, UniProt Q15858); experiment: Electrophysiology assay (whole cell patch clamp), human Nav1.7; conditions: dissociation constant for the inactivated state, CHO cells, read-out: activity (Ki) against Nav1.7
T3 construct: expressed in transfected cells; host or cells: CHO cells
Description: as §1, §2, §3

human Nav1.5 channels = target: T4, human Nav1.5 channels (Homo sapiens, UniProt Q14524); experiment: FRET assay, human Nav1.5 channels; conditions: read-out: activity against Nav1.5 (IC50)
T4 construct: expressed in transfected cells; host or cells: HEK293 cells
Description: as §4, §5, §6
Each HEK293 cells expressing human Nav1.3 channels and HEK293 cells expressing human Nav1.5 channels are grown in T225 flasks, in a 5% CO2 humidified incubator to about 80% confluence. Media composition consists of Dulbecco's Modified Eagle Medium (high glucose), 10% FCS, 100 units/mL penicillin, 100 microgram/mL streptomycin and 500 microgram/mL Geneticine. […]
as §7, §8

T2 sequence (Q15858 whole entry): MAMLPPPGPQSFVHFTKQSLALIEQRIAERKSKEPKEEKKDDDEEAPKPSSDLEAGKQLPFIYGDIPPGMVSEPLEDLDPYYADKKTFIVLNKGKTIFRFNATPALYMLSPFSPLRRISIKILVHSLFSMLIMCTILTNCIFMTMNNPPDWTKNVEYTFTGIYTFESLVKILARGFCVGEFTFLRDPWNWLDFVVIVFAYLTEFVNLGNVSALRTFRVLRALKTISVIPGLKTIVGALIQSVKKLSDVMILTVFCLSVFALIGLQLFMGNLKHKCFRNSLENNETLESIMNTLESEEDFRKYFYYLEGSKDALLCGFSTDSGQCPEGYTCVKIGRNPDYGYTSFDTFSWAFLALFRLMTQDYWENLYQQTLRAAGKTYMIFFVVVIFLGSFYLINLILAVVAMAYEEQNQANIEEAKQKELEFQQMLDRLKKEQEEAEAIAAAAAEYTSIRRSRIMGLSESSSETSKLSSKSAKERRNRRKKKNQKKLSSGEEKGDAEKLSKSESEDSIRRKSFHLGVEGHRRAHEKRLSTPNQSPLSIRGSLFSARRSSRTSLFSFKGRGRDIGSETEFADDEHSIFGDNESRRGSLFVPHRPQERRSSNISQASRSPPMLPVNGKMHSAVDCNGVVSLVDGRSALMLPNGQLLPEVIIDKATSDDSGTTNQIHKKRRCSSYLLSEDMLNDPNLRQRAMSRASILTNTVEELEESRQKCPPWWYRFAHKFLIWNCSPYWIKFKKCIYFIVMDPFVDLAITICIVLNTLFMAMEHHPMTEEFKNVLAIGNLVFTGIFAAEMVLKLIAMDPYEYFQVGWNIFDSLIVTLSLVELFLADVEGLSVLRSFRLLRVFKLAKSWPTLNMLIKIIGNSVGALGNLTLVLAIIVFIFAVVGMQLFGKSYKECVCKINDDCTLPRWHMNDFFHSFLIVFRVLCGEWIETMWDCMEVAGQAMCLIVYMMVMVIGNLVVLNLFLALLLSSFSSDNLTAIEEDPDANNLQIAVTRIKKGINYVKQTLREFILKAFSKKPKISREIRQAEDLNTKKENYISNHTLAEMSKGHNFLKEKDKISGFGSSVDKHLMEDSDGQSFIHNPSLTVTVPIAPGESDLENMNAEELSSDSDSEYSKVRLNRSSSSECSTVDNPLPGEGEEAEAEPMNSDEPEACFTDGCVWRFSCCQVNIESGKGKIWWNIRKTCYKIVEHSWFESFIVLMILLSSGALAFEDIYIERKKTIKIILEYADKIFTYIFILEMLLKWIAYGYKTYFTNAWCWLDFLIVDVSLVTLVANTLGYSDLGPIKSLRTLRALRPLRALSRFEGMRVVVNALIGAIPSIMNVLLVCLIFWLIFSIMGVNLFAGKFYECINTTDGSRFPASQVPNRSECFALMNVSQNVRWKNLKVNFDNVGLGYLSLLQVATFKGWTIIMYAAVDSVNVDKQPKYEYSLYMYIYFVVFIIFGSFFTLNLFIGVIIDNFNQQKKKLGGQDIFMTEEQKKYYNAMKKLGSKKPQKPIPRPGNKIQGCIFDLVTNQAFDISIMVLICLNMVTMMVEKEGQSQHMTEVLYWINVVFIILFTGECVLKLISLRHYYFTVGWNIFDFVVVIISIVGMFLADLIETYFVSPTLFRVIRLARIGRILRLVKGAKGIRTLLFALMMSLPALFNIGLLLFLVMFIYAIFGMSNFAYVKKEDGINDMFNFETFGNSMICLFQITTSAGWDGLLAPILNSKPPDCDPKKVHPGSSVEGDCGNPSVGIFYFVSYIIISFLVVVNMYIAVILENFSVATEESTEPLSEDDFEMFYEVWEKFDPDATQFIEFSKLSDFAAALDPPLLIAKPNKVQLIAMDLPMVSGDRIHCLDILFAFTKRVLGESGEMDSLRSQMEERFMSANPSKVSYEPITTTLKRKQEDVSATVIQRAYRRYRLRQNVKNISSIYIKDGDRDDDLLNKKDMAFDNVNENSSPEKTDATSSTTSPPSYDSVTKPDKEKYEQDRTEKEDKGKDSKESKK
T1 sequence (Q9NY46 whole entry): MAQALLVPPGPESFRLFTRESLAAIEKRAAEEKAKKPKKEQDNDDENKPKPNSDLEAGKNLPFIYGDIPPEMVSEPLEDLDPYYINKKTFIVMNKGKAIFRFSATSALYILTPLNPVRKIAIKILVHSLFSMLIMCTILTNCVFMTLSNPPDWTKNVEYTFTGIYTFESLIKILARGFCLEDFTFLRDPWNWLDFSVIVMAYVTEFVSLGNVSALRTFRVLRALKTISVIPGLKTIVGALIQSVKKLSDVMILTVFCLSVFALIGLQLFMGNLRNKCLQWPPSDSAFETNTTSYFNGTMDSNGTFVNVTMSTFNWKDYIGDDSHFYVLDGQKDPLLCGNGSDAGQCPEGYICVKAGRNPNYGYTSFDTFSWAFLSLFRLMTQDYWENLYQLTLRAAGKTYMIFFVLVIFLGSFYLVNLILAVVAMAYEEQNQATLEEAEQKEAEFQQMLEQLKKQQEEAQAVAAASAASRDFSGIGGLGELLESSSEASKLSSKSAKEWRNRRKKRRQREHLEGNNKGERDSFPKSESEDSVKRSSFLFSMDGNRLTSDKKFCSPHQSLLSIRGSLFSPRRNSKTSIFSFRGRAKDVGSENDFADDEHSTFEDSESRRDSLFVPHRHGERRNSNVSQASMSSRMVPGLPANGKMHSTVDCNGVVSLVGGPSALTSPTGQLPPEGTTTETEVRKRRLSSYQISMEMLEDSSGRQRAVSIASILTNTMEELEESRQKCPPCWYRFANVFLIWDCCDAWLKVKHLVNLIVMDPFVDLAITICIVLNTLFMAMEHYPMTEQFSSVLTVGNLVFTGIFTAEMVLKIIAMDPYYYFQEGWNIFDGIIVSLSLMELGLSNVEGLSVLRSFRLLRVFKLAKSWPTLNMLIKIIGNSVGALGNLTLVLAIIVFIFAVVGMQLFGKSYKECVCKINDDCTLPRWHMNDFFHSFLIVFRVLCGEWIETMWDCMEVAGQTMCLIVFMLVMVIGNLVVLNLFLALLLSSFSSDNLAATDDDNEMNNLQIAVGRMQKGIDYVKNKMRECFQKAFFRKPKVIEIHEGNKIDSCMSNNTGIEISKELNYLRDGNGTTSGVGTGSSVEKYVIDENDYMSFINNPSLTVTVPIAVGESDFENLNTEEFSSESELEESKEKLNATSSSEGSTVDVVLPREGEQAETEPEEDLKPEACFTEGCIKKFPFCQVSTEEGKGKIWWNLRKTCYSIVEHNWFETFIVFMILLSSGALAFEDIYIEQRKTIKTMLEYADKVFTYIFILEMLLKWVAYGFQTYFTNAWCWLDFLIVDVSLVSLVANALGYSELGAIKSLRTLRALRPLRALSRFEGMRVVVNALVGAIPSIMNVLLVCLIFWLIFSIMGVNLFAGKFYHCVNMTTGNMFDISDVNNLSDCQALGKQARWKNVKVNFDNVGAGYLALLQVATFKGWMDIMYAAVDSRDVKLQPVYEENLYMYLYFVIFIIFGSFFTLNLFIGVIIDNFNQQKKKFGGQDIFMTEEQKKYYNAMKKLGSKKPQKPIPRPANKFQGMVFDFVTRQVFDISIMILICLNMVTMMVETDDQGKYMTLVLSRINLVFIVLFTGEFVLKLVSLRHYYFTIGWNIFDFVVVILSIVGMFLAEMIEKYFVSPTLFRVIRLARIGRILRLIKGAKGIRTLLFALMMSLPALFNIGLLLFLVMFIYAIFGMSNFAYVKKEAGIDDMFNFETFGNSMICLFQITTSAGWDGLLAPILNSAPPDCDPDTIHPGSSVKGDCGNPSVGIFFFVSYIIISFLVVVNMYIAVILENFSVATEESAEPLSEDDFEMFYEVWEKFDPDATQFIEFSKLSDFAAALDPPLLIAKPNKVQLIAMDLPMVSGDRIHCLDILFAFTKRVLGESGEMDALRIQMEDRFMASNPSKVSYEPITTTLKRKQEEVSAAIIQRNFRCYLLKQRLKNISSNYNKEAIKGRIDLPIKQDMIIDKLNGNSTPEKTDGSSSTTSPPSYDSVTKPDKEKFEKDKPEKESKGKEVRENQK
T3 sequence (Q15858 whole entry): as the sequence (Q15858 whole entry) above

Cc1cc(Cn2cc3c(NC(=O)C(C)(C)O)nccc3n2)cnc1OCC(F)(F)F [Example 2, 2-hydroxy-2-methyl-N-(2-((5-methyl-6-(2,2,2-trifluoroethoxy)pyridin-3-yl)methyl)-2H-pyrazolo[4,3-c]pyridin-4-yl)propanamide]
Ki (human Nav1.3 (hSCN3A)): 570 nM
IC50 (human Nav1.7 channels; bound holds for Nav1.7 and/or Nav1.3, not stated which, read-out: IC50 against Nav1.7 and/or Nav1.3): < 1000 nM
IC50 (human Nav1.7 channels; read-out: activity against Nav1.7 (IC50)): 380 nM
Ki (human Nav1.7 (hSCN9A)): 340 nM
IC50 (human Nav1.5 channels): > 30000 nM
